Columns and labels:
Assay in all cases: relative viability (nuclei count vs DMSO), 5 days (fraction); higher = more cells survive
[1] = compound: C1CCC(CC1)N(CCNCCC2=C3C(=C(C=C2)O)NC(=O)CO3)C(=O)CCNCCC4=CC(=C(C=C4)Cl)Cl [AZ505] + Cc1nc(Nc2ncc(C(=O)Nc3c(C)cccc3Cl)s2)cc(N2CCN(CCO)CC2)n1 [Dasatinib] (partner 0.075 µM)
In short: (§1)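 Relative viability is defined as nuclei in treated wells over nuclei in vehicle wells. Duplicate plates were run and medians reported. Lung cancer cell lines in 1536-well plates were dosed by pin tool one day after seeding, with one drug or with a fixed anchor-drug dose plus five library-drug doses (not always all listed) in √10 steps, and nuclei were counted after 5 days.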

[2] = compound: Cn1c(=O)n(-c2ccc(C(C)(C)C#N)cc2)c2c3cc(-c4cnc5ccccc5c4)ccc3ncc21 [Dactolisib] + Cc1cc(Nc2cc(N3CCN(C)CC3)nc(Sc3ccc(NC(=O)C4CC4)cc3)n2)n[nH]1 [Tozasertib] (partner 0.1 µM)
In short: as §1

[3] = compound: Cn1c(=O)n(-c2ccc(C(C)(C)C#N)cc2)c2c3cc(-c4cnc5ccccc5c4)ccc3ncc21 [Dactolisib] + Nc1nc2[nH]cc(CCc3ccc(C(=O)N[C@@H](CCC(=O)O)C(=O)O)cc3)c2c(=O)[nH]1 [Pemetrexed] (partner 0.2 µM)
In short: as §1

[4] = compound: Cn1c(=O)n(-c2ccc(C(C)(C)C#N)cc2)c2c3cc(-c4cnc5ccccc5c4)ccc3ncc21 [Dactolisib] + CC(C)C[C@H](NC(=O)[C@H](Cc1ccccc1)NC(=O)c1cnccn1)B(O)O [Bortezomib] (partner 0.002 µM)
In short: as §1

Cell Line	relative viability ([1]; first compound 0.08 µM)	relative viability ([1]; first compound 0.253 µM)	relative viability ([1]; first compound 0.8 µM)	relative viability ([1]; first compound 2.53 µM)	relative viability ([1]; first compound 8 µM)	relative viability ([2]; first compound 0.002 µM)	relative viability ([2]; first compound 0.006325 µM)	relative viability ([2]; first compound 0.02 µM)	relative viability ([2]; first compound 0.06325 µM)	relative viability ([2]; first compound 0.2 µM)	relative viability ([3]; first compound 0.002 µM)	relative viability ([3]; first compound 0.006325 µM)	relative viability ([3]; first compound 0.02 µM)	relative viability ([3]; first compound 0.06325 µM)	relative viability ([3]; first compound 0.2 µM)	relative viability ([4]; first compound 0.002 µM)	relative viability ([4]; first compound 0.006325 µM)	relative viability ([4]; first compound 0.02 µM)	relative viability ([4]; first compound 0.06325 µM)	relative viability ([4]; first compound 0.2 µM)
NCI-H1395	0.427	0.451	0.375	0.419	0.455	0.657	0.709	0.676	0.593	0.53	0.537	0.883	0.705	0.722	0.521	–	–	–	–	–
NCI-H1563	0.456	0.467	0.498	0.481	0.432	–	–	–	–	–	0.797	0.751	0.755	0.628	0.512	0.904	0.903	0.819	0.603	0.59
NCI-H1623	0.488	0.466	0.598	0.479	0.612	0.396	0.414	0.428	0.37	0.298	–	–	–	–	–	–	–	–	–	–
NCI-H1648	–	–	–	–	–	0.407	0.433	0.446	0.24	0.218	0.779	0.739	0.896	0.837	0.52	–	–	–	–	–
NCI-H1703	–	–	–	–	–	–	–	–	–	–	–	–	–	–	–	0.321	0.272	0.159	0.199	0.213
NCI-H1792	0.734	–	0.697	0.69	0.684	–	–	–	–	–	0.625	0.473	0.313	0.109	0.0622	0.872	0.948	0.936	0.598	0.313
NCI-H1793	0.345	0.439	0.394	–	0.439	0.329	0.242	0.199	0.126	0.106	0.751	0.409	0.266	0.214	0.168	–	–	–	–	–
NCI-H1944	0.212	0.188	0.246	0.203	0.224	0.308	0.237	0.237	0.156	0.153	0.461	0.564	0.585	0.286	0.244	–	–	–	–	–
NCI-H2170	0.541	0.608	0.444	0.695	0.509	0.753	0.735	0.62	0.511	0.252	0.262	0.258	0.281	0.261	0.263	–	–	–	–	–
NCI-H2342	0.312	0.317	0.316	0.346	0.351	0.475	0.496	0.435	0.502	0.362	0.75	0.833	0.721	0.779	0.599	–	–	–	–	–
SK-MES-1	0.373	0.402	0.302	0.353	0.36	0.989	0.84	0.876	0.32	0.264	0.993	0.837	0.847	0.417	0.367	–	–	–	–	–
SW 900	0.584	0.458	0.54	0.919	0.658	0.633	0.669	0.511	0.426	0.36	0.498	0.48	0.474	0.259	0.271	–	–	–	–	–

— the supplement of paper PMC10307832
